Test results: patent US8163718B2, “Nucleoside analogues containing phosphonate or phosphonamide groups” (Gilead Sciences, Inc., priority 2008, dated 2012)

System: A549
Experiment: Cytostatic cell culture assay (GI50), SRB
Assay type: cell-based
Conditions: 5 days incubation
From the text: (§1) The assay is based on quantification of cell counts by a colorimetric detection of the cell associated proteins. The assay relies on the ability of sulforhodamine B (SRB) to bind to protein components of cells that have been fixed to tissue-culture plates by trichloroacetic acid (TCA). SRB is a bright-pink aminoxanthene dye with two sulfonic groups that bind to basic amino-acid residues under mild acidic conditions, and dissociate under basic conditions. As the binding of SRB is stoichiometric, the amount of dye extracted from stained cells is directly proportional to the cell mass.
(§2) Cell lines: All cell lines were obtained from ATCC (Manassas, Va.). Cultivation media containing Glutamax, and trypsin were purchased from Invitrogen (Carlsbad, Calif.). Doxorubicin, Clofarabine, TCA and SRB were from Sigma-Aldrich (St. Louis, Mo.). Gemcitabine was obtained from Moravek Biochemicals (Brea, Calif.)
(§3) • 1. Trypsinize the sub-confluent cells, count them, and adjust the cell concentrations according to the cell counts listed in Table 1. • 2. Distribute the cells into the 96-well plates in 150 μL of media. Incubate the plates overnight in humidified CO2 incubator at 37° C. • 3. Fix one plate of each cell line with TCA. Discard the cultivation media from the plates by flicking them gently and add 100 ul cold 10% (vol/vol) TCA to each well. Incubate the plates at 4 degree refrigerator for 1 hour. Discard TCA from the plates by flicking them gently. Rinse plates four times in a washing basin containing tap water. Store the plates at room temperature. These plates represent cell counts on day zero. • 4. Prepare a set of medium solutions containing various concentrations of tested compounds by making 5-fold serial dilutions in 96-well plate. Add 50 μL of the diluted compounds per well. Include controls with untreated cells and cells treated with doxorubicin, clofarabine and gemcitabine. • 5. Incubate the plates for 5 days at 37° C. • 6. Fix the plates with TCA. Discard the cultivation media from the plates by flicking them gently and add 100 ul cold 10% (vol/vol) TCA to each well. Incubate the plates at 4 degree refrigerator for 1 hour. Discard TCA from the plates by flicking them gently. Rinse plates four times in a washing basin containing tap water. • 7. Remove excess water by tapping the plates face down, gently on a paper towel. Allow the plates to air-dry at room temperature. • 8. Add 100 ul of 0.057% SRB solution in 1% (vol/vol) acetic acid to each well of the plates fixed with TCA on day zero and five. Leave at room temperature for 30 minutes. • 9. Flick the plates gently to discard SRB. Rinse the plates four times with 1% (vol/vol) Acetic Acid. • 10. Store the plates at 37 degree incubator to facilitate faster drying. • 11. Once the plates are completely dry, add 200 ul of 10 mM Tris base solution (pH 10.5) to each well. Leave at room temperature for 30 minutes for SRB to solubilize. • 12. Measure the OD at 500 nm in a microplate reader • 13. Calculate the percentage of cell-growth inhibition using the next formula: % of control cell growth=100×(ODsample−mean ODday0)/(ODneg control−mean ODday0)
(§4) For GI50 determination, plot a dose-response curve between the compound concentration and percent of growth inhibition. GI50 values can be derived by fitting dose-response curves using sigmoidal dose response equation.

| SMILES | GI50 |
| --- | --- |
| CCCOc1nc(N)nc2c1ncn2CCOCP(=O)(N[C@@H](C)C(=O)OCC)Oc1ccccc1 (single isomer, unassigned) [Example 53b] | 647 nM |
| CCCOc1nc(N)nc2c1ncn2CCOCP(=O)(N[C@@H](C)C(=O)OCC)Oc1ccccc1 (single isomer, unassigned) [Example 53a] | 268 nM |

Same assay, conditions: Homo sapiens, A549, 120 h; 5 days incubation

| GI50 | SMILES |
| --- | --- |
| 2980 nM | CC(C)Oc1nc(N)nc2c1ncn2CCOCP(=O)(O)O [Example 3, [2-(2-Amino-6-isopropoxy-purin-9-yl)-ethoxymethyl]-phosphonic acid] |
| 1710 nM | CCOC(=O)[C@H](C)NP(=O)(COCCn1cnc2c(OC3CC3)nc(N)nc21)N[C@@H](C)C(=O)OCC [Example 42] |

System: BT-549
Experiment: Cytostatic cell culture assay (GI50), SRB
Assay type: cell-based
Conditions: 5 days incubation
From the text: as §1, §2, §3, §4

| SMILES | GI50 |
| --- | --- |
| CCCOc1nc(N)nc2c1ncn2CCOCP(=O)(N[C@@H](C)C(=O)OCC)Oc1ccccc1 (single isomer, unassigned) [Example 53b] | 564 nM |
| CCCOc1nc(N)nc2c1ncn2CCOCP(=O)(N[C@@H](C)C(=O)OCC)Oc1ccccc1 (single isomer, unassigned) [Example 53a] | 249 nM |

Same assay, conditions: Homo sapiens, BT-549, 120 h; 5 days incubation

| GI50 | SMILES |
| --- | --- |
| 2480 nM | CC(C)Oc1nc(N)nc2c1ncn2CCOCP(=O)(O)O [Example 3, [2-(2-Amino-6-isopropoxy-purin-9-yl)-ethoxymethyl]-phosphonic acid] |
| 104 nM | CCOC(=O)[C@H](C)NP(=O)(COCCn1cnc2c(OC3CC3)nc(N)nc21)N[C@@H](C)C(=O)OCC [Example 42] |

System: Du-145
Experiment: Cytostatic cell culture assay (GI50), SRB
Assay type: cell-based
Conditions: 5 days incubation
From the text: as §1, §2, §3, §4

| SMILES | GI50 |
| --- | --- |
| CCCOc1nc(N)nc2c1ncn2CCOCP(=O)(N[C@@H](C)C(=O)OCC)Oc1ccccc1 (single isomer, unassigned) [Example 53b] | 14 nM |
| CCCOc1nc(N)nc2c1ncn2CCOCP(=O)(N[C@@H](C)C(=O)OCC)Oc1ccccc1 (single isomer, unassigned) [Example 53a] | 2 nM |

Same assay, conditions: Homo sapiens, DU-145, 120 h; 5 days incubation

| GI50 | SMILES |
| --- | --- |
| 177 nM | CC(C)Oc1nc(N)nc2c1ncn2CCOCP(=O)(O)O [Example 3, [2-(2-Amino-6-isopropoxy-purin-9-yl)-ethoxymethyl]-phosphonic acid] |
| 10 nM | CCOC(=O)[C@H](C)NP(=O)(COCCn1cnc2c(OC3CC3)nc(N)nc21)N[C@@H](C)C(=O)OCC [Example 42] |

System: HCT-116
Experiment: Cytostatic cell culture assay (GI50), SRB
Assay type: cell-based
Conditions: 5 days incubation
From the text: as §1, §2, §3, §4

| SMILES | GI50 |
| --- | --- |
| CCCOc1nc(N)nc2c1ncn2CCOCP(=O)(N[C@@H](C)C(=O)OCC)Oc1ccccc1 (single isomer, unassigned) [Example 53b] | 329 nM |
| CCCOc1nc(N)nc2c1ncn2CCOCP(=O)(N[C@@H](C)C(=O)OCC)Oc1ccccc1 (single isomer, unassigned) [Example 53a] | 154 nM |

Same assay, conditions: Homo sapiens, HCT-116, 120 h; 5 days incubation

| GI50 | SMILES |
| --- | --- |
| 2440 nM | CC(C)Oc1nc(N)nc2c1ncn2CCOCP(=O)(O)O [Example 3, [2-(2-Amino-6-isopropoxy-purin-9-yl)-ethoxymethyl]-phosphonic acid] |
| 430 nM | CCOC(=O)[C@H](C)NP(=O)(COCCn1cnc2c(OC3CC3)nc(N)nc21)N[C@@H](C)C(=O)OCC [Example 42] |

System: HCT-15
Experiment: Cytostatic cell culture assay (GI50), SRB
Assay type: cell-based
Conditions: 5 days incubation
From the text: as §1, §2, §3, §4

| SMILES | GI50 |
| --- | --- |
| CCCOc1nc(N)nc2c1ncn2CCOCP(=O)(N[C@@H](C)C(=O)OCC)Oc1ccccc1 (single isomer, unassigned) [Example 53b] | 2040 nM |

Same assay, conditions: Homo sapiens, HCT-15, 120 h; 5 days incubation

| GI50 | SMILES |
| --- | --- |
| 2530 nM | CC(C)Oc1nc(N)nc2c1ncn2CCOCP(=O)(O)O [Example 3, [2-(2-Amino-6-isopropoxy-purin-9-yl)-ethoxymethyl]-phosphonic acid] |
| 10000 nM | CCOC(=O)[C@H](C)NP(=O)(COCCn1cnc2c(OC3CC3)nc(N)nc21)N[C@@H](C)C(=O)OCC [Example 42] |

| SMILES | GI50 |
| --- | --- |
| CCCOc1nc(N)nc2c1ncn2CCOCP(=O)(N[C@@H](C)C(=O)OCC)Oc1ccccc1 (single isomer, unassigned) [Example 53a] | 2110 nM |

System: Hs-578
Experiment: Cytostatic cell culture assay (GI50), SRB
Assay type: cell-based
Conditions: 5 days incubation
From the text: as §1, §2, §3, §4

| SMILES | GI50 |
| --- | --- |
| CCCOc1nc(N)nc2c1ncn2CCOCP(=O)(N[C@@H](C)C(=O)OCC)Oc1ccccc1 (single isomer, unassigned) [Example 53b] | 177 nM |
| CCCOc1nc(N)nc2c1ncn2CCOCP(=O)(N[C@@H](C)C(=O)OCC)Oc1ccccc1 (single isomer, unassigned) [Example 53a] | 62 nM |

Same assay, conditions: Hs578, 120 h; 5 days incubation

| SMILES | GI50 |
| --- | --- |
| CC(C)Oc1nc(N)nc2c1ncn2CCOCP(=O)(O)O [Example 3, [2-(2-Amino-6-isopropoxy-purin-9-yl)-ethoxymethyl]-phosphonic acid] | 2450 nM |
| CCOC(=O)[C@H](C)NP(=O)(COCCn1cnc2c(OC3CC3)nc(N)nc21)N[C@@H](C)C(=O)OCC [Example 42] | 162 nM |

System: NCI-H23
Experiment: Cytostatic cell culture assay (GI50), SRB
Assay type: cell-based
Conditions: 5 days incubation
From the text: as §1, §2, §3, §4

| SMILES | GI50 |
| --- | --- |
| CCCOc1nc(N)nc2c1ncn2CCOCP(=O)(N[C@@H](C)C(=O)OCC)Oc1ccccc1 (single isomer, unassigned) [Example 53b] | 70 nM |
| CCCOc1nc(N)nc2c1ncn2CCOCP(=O)(N[C@@H](C)C(=O)OCC)Oc1ccccc1 (single isomer, unassigned) [Example 53a] | 5 nM |

Same assay, conditions: Homo sapiens, NCI-H23, 120 h; 5 days incubation

| GI50 | SMILES |
| --- | --- |
| 551 nM | CC(C)Oc1nc(N)nc2c1ncn2CCOCP(=O)(O)O [Example 3, [2-(2-Amino-6-isopropoxy-purin-9-yl)-ethoxymethyl]-phosphonic acid] |
| 15 nM | CCOC(=O)[C@H](C)NP(=O)(COCCn1cnc2c(OC3CC3)nc(N)nc21)N[C@@H](C)C(=O)OCC [Example 42] |

System: PC3
Experiment: Cytostatic cell culture assay (GI50), SRB
Assay type: cell-based
Conditions: 5 days incubation
From the text: as §1, §2, §3, §4

| SMILES | GI50 |
| --- | --- |
| CCCOc1nc(N)nc2c1ncn2CCOCP(=O)(N[C@@H](C)C(=O)OCC)Oc1ccccc1 (single isomer, unassigned) [Example 53b] | 180 nM |
| CCCOc1nc(N)nc2c1ncn2CCOCP(=O)(N[C@@H](C)C(=O)OCC)Oc1ccccc1 (single isomer, unassigned) [Example 53a] | 31 nM |

Same assay, conditions: Homo sapiens, PC-3, 120 h; 5 days incubation

| GI50 | SMILES |
| --- | --- |
| 1380 nM | CC(C)Oc1nc(N)nc2c1ncn2CCOCP(=O)(O)O [Example 3, [2-(2-Amino-6-isopropoxy-purin-9-yl)-ethoxymethyl]-phosphonic acid] |
| 237 nM | CCOC(=O)[C@H](C)NP(=O)(COCCn1cnc2c(OC3CC3)nc(N)nc21)N[C@@H](C)C(=O)OCC [Example 42] |
